What was measured:
4T1 cells [1] = experiment: IV (experimental) lung metastasis model of 4T1 breast cancer; type: in vivo, BALB/c mice
4T1 cells [2] = experiment: Secondary (orthotopic) 4T1 challenge after 1V270 therapy; type: in vivo, BALB/c mice
Source text: FIGS. 24A-24G. Tumor infiltrating T cells in 1V270 treated mice show high clonalities and increased frequency of intra- and inter-individual common clones (A) Experimental protocols of the secondary challenge studies. Two groups of BALB/c mice (n=5/group) were i.p, treated with 1V270. One cohort of mice was i.v. injected with 4T1-GLF cells (2×10^4) on day 0 and tumor growth in the lungs was monitored by IVIS on day 20. […] Native BALB/c mice served as controls. 4T1 cells were orthotopically inoculated on day 21. (B) Tumor growth was measured with a caliper and calculated using the formula: volume (mm3)=(width)2×length/2. (C) TILs s were isolated from the secondarily challenged tumor on day 39 and stained for CD8^+ T cells (CD3^+CD8^+) and PD-1. The numbers of tumor-infiltrating cos• T cells were expressed per tumor volume (mm^3). Data are representative of 2 independent experiments showing similar results. Results were analyzed by the Mann-Whitney U test comparing the 1V270 treatment groups against the vehicle treated group. **P<0.01. (D·G) TCR repertoire of CD8^+ T cells from TILs s and splenocytes were examined. (D) The clonality index (1-normalized Shannon index) of CD8^+ T cells infiltrating to the left side of the secondarily challenged tumor was plotted against tumor volume in the tumor exposed mice. Correlation between the clonality index and the tumor volume was evaluated by Pearson's method (R^2=0.97, p<0.05).
FIGS. 26A-26D. Intranasally administered 1V270 inhibits pulmonary colonization in experimental metastasis models (A) Protocol for testing the therapeutic efficacy of i.n. treatment with 1V270 in IV metastasis model. BALB/c mice (n=6-8/group) were i.n. administered with 1V270 (20 or 200 μg) or vehicle on days −3, −1, 3, 7, and 10. 4T1 cells were v. injected on day 0. (B) The numbers of lung nodules were counted on Day 21. *P<0.05 calculated by Kruskal-Wallis test with Dunn's post hoc test. (C) Intranasal 1V270 therapy attenuated the growth of secondarily challenged tumors. BALB/c mice (n=S) were i.n. treated with 200 μg 1V270 on days −3, −1, 3, 7 and 10. 4T1 cells were injected on day 0. On day 21, the surviving mice were orthotopically inoculated with 4T1 cells and tumor growth was monitored. The mice treated with 1V270 without i.v. tumor cell injection served as controls. (D) TILs were isolated from the secondarily challenged tumor, and the numbers of CD8^+ T cells and PD-1 expressing CD8^+ T cells were analyzed by flow cytometric assay. Data were analyzed by the Mann-Whitney U test comparing two groups. *P<0.05. Data are representative of 2 independent experiments showing similar results.
In the spontaneous metastasis model, othotopically implanted tumor cells spontaneously form lung metastases within three weeks after implantation. 5×10^5 4T1 cells were inoculated in both sides of the 4th mammary pads of female BALB/c mice. Tumor length and width were recorded, and tumor volumes were calculated using the formula: volume (mm^3)=(width)^2×length/2. On day 28, mice were euthanized and the lungs were stained with intratracheally injected India ink and destained in Fekete's solution to count tumor nodules. In the experimental metastasis model, 2×10^4 4T1 cells were i.v. injected. On day 21, mice were euthanized and tumor nodules in lungs were counted as described above. In the secondary challenge experiment, 1V270 treated-mice without tumor signals in the lungs on day 21 of the experimental metastasis protocol were included. 5×10^5 4T1 cells were inoculated in both sides of the 4th mammary p ads. Tumor length and width were recorded, and tumor volumes were calculated similar with
To validate that 1V270 therapy induced tumor-specific adaptive immune responses, we monitored the growth of secondarily challenged tumors following prior 1V270 treatment. The mice treated with 1V270 using the IV metastasis protocol were orthotopically re-challenged with 4T1 cells on day 21 (FIG. 24A). […]

[3] = intranasal 1V270, tumor-exposed vs no tumor exposure or naive

Compound: CCCCCCCCC=CCCCCCCCC(=O)OCC(COP(=O)(O)OCCNC(=O)c1ccc(Cn2c(=O)[nH]c3c(N)nc(OCCOC)nc32)cc1)OC(=O)CCCCCCCC=CCCCCCCCC (centres unmarked) [1V270]
- lung metastasis after a single administration (4T1 cells [1]; 200 μg i.p., 1 day prior to tumor inoculation): sufficient to inhibit lung metastasis
- lung metastasis (number of lung nodules) (4T1 cells [1]; 1V270 2, 20 or 200 μg/injection i.p. days -1, 7, 10, 14, counted day 21): inhibited lung metastasis in a dose-dependent manner
- lowest effective dose (4T1 cells [1]; i.p., inhibition of lung metastasis): 20 µg
- number of lung nodules (4T1 cells [1]; intranasal 20 or 200 μg/50 μL on days -3, -1, 3, 7, 10): inhibited the number of lung nodules in a dose-dependent manner
- numbers of CD8+ T cells in TILs (4T1 cells [2]; 1V270-treated tumor-exposed vs 1V270-treated no-tumor exposed mice): Three-fold higher
- growth of secondarily challenged tumor (4T1 cells [2]; i.p. 1V270-treated and tumor-exposed mice vs naive or no-tumor exposed mice): significantly impaired
- growth of secondarily challenged tumor (4T1 cells [2]; i.p. 1V270-treated no-tumor exposed mice vs naive mice): no difference in the tumor growth
- re-challenged tumor growth (4T1 cells [2]; intranasal 1V270, tumor-exposed mice): significantly inhibited
- number of CD8+ T cells in TILs (4T1 cells [2]; [3]): A higher number
- number of PD-1+CD8+ T cells in TILs (4T1 cells [2]; [3]): A higher number
- CD8+ T cells in TILs positive for PD-1 (4T1 cells [2]; secondarily challenged tumor): more than 80%

Reference: US20200087625A1, “METHODS FOR ISOLATING, EXPANDING AND ADMINISTERING CANCER SPECIFIC CD8+ T CELLS” (priority 2017, published 2020)
